Data: patent publication US20250197393A1, “INTEGRIN INHIBITOR AND USES THEREOF” (Pliant Therapeutics, Inc., priority 2023, published 2025)
Converted amounts (≈) assume the structure as drawn.

How the values were obtained:
Assay type in all cases: physicochemical
[1] = Bulk stability of solid under temperature/humidity stress (HPLC, appearance, XRPD); conditions: for purity decrease: listed as L-tartaric acid cocrystal Pattern A; for Bulk (XRPD) / Bulk (HPLC) purity, 316 nm: Solid state
Method: Bulk stability of (S)-4-((2-methoxyethyl)(4-(5,6,7,8-tetrahydro-1,8-naphthyridin-2-yl)butyl)amino)-2-(quinazolin-4-ylamino)butanoic acid L-tartaric acid cocrystal Pattern A was evaluated at 25° C./92.5% RH in an open container, at 40° C./75% RH in an open container, and at 60° C. in a closed container over 1 week and 4 weeks.
However, it became deliquescent after being stressed at 25° C./92.5% RH in an open container and at 40° C./75% RH in an open container after 1 week.

[2] = Wet granulation simulation
Method: Water or ethanol was added dropwise to about 20 mg of (S)-4-((2-methoxyethyl)(4-(5,6,7,8-tetrahydro-1,8-naphthyridin-2-yl)butyl)amino)-2-(quinazolin-4-ylamino)butanoic acid L-tartaric acid cocrystal Pattern A until the sample was wetted sufficiently. The wet sample was ground gently using a mortar and pestle. Post granulation sample was dried under ambient conditions for 30 min. The potential form change and degree of crystallinity were evaluated by XRPD.

[3] = Solubility at 37° C. in aqueous and biorelevant media; conditions: for solubility at 2 h / solubility at 24 h: 37 °C, thermodynamic from solid; for solubility at 2 h / solubility at 24 h / Solubility (mg/ mL) 2 h / Solubility (mg/ mL) 24 h: target 250 mg/mL (in free form); for pH of supernatant at 24 h / Solubility (mg/ mL) 2 h / Solubility (mg/ mL) 24 h: listed as L-Tartaric acid cocrystal Pattern A, hydrate
Method: To prepare the samples of (S)-4-((2-methoxyethyl)(4-(5,6,7,8-tetrahydro-1,8-naphthyridin-2-yl)butyl)amino)-2-(quinazolin-4-ylamino)butanoic acid L-tartaric acid cocrystal Pattern A, 80.6 mg was weighed into a 2 mL glass vial. Next, 0.18 mL of solubility medium was added. The salt amount used is equivalent to 45 mg of the amorphous free form. Obtained suspensions/solutions were stirred at 37° C. at 400 rpm and sampled at 2 h and at 24 h. The samples were centrifuged at 37° C. at 14,000 rpm for 5 min. Supernatants were analyzed by HPLC and pH meter for solubility and pH value, respectively. […]

[4] = 40° C./75% RH, open container, 4 weeks
[5] = 60° C., closed container, 4 weeks, listed as L-Tartaric acid cocrystal Pattern A, hydrate
[6] = FaSSGF (fasted state simulated gastric fluid), pH 1.6, fassgf or other biorelevant, FaSSGF, pH 1.6, 37° C.
[7] = FeSSIF-v1 (fed state simulated intestinal fluid), pH 5, fessif, FeSSIF-v1, pH 5.0, 37° C.
[8] = pH 1.2 HCl buffer, pH 1.2, simulated gastric fluid
[9] = pH 4.5 acetate buffer (50 mM), pH 4.5, aqueous buffer
[10] = pH 6.8 phosphate buffer (50 mM), 37° C.

COCCN(CCCCc1ccc2c(n1)NCCC2)CC[C@H](Nc1ncnc2ccccc12)C(=O)O [Pattern A, (S)-4-((2-methoxyethyl)(4-(5,6,7,8-tetrahydro-1,8-naphthyridin-2-yl)butyl)amino)-2-(quinazolin-4-ylamino)butanoic acid]
purity decrease ([1]; 25° C./92.5% RH in an open container, 4 weeks): 0.9%
physical form after stress ([1]; 25° C./92.5% RH open, 40° C./75% RH open and 60° C. closed container, four weeks): remained the same form
physical stability ([1]; 25° C./92.5% RH open, 40° C./75% RH open and 60° C. closed container, over 4 weeks): physically stable
purity decrease ([1]; 60° C. in a closed container, 4 weeks): 0.9%
Bulk (XRPD) ([1]; 25° C./92.5% RH, open container, 1 week): No form change
Bulk (HPLC) purity, 316 nm ([1]; 25° C./92.5% RH, open container, 1 week, listed as L-Tartaric acid cocrystal Pattern A, hydrate): 99.2%
Bulk (XRPD) ([1]; 25° C./92.5% RH, open container, 4 weeks): No form change
Bulk (HPLC) purity, 316 nm ([1]; 25° C./92.5% RH, open container, 4 weeks, listed as L-Tartaric acid cocrystal Pattern A, hydrate): 98.5%
Bulk (XRPD) ([1]; 40° C./75% RH, open container, 1 week): No form change
Bulk (HPLC) purity, 316 nm ([1]; 40° C./75% RH, open container, 1 week, listed as L-Tartaric acid cocrystal Pattern A, hydrate): 98.9%
Bulk (HPLC) purity, 316 nm [1, 4]: 97.3%
Bulk (XRPD) [1, 4]: No form change
Bulk (XRPD) ([1]; 60° C., closed container, 1 week): No form change
Bulk (HPLC) purity, 316 nm ([1]; 60° C., closed container, 1 week, listed as L-Tartaric acid cocrystal Pattern A, hydrate): 99.1%
Bulk (HPLC) purity, 316 nm [1, 5]: 98.5%
Bulk (XRPD) [1, 5]: No form change
stability under stress conditions ([1]; open container, 25° C. and 92.5% relative humidity and 40° C. and 75% RH, up to four weeks): stable
bulk stability relative to the phosphate salt ([1]; various temperatures and relative humidities (BS1, BS2, BS3)): higher stability
XRPD after wet granulation ([2]; Granulation solvent Ethanol): Pattern A
Comments (crystallinity after wet granulation) ([2]; Granulation solvent Water): Slight decrease in crystallinity
XRPD after wet granulation ([2]; Granulation solvent Water): Pattern A
solubility at 2 h [3, 6]: 206 mg/mL (≈ 419 mM)
solubility at 24 h [3, 6]: 224 mg/mL (≈ 455 mM)
pH of supernatant at 24 h ([3]; FaSSGF, pH 1.6, 37° C.): (1.6)
Solubility (mg/ mL) 2 h ([3]; FaSSIF-v1, pH 6.5, 37° C.): 84.1 mg/mL (≈ 171 mM)
Solubility (mg/ mL) 24 h ([3]; FaSSIF-v1, pH 6.5, 37° C.): 63.2 mg/mL (≈ 128 mM)
pH of supernatant at 24 h ([3]; FaSSIF-v1, pH 6.5, 37° C.): (6.6)
solubility at 2 h [3, 7]: 203 mg/mL (≈ 413 mM)
solubility at 24 h [3, 7]: 217 mg/mL (≈ 440 mM)
pH of supernatant at 24 h ([3]; FeSSIF-v1, pH 5.0, 37° C.): (5.0)
pH of supernatant at 24 h ([3]; Water, 37° C.): (3.2)
pH of supernatant at 24 h ([3]; pH 1.2 HCl buffer, 37° C.): (1.4)
solubility at 2 h [3, 8]: 215 mg/mL (≈ 436 mM)
solubility at 24 h [3, 8]: 222 mg/mL (≈ 451 mM)
pH of supernatant at 24 h ([3]; pH 4.5 acetate buffer (50 mM), 37° C.): (4.4)
solubility at 2 h [3, 9]: 214 mg/mL (≈ 435 mM)
solubility at 24 h [3, 9]: 220 mg/mL (≈ 448 mM)
Solubility (mg/ mL) 2 h [3, 10]: 28.4 mg/mL (≈ 57.7 mM)
Solubility (mg/ mL) 24 h [3, 10]: 56.4 mg/mL (≈ 114 mM)
pH of supernatant at 24 h [3, 10]: (6.8)
solubility at 2 h ([3]; water): 207 mg/mL (≈ 421 mM)
solubility at 24 h ([3]; water): 218 mg/mL (≈ 442 mM)
